Numbered stars: 1 amine (or outer) side, 2 acyl side, 3 side chain; on linkers, the order of the positions; unused ones are H or OH. Square brackets hold non-standard residues; d marks the D form. Peptide text beside a SMILES is read from it. * marks the point of attachment. C22 diacid = O=C(O)CCCCCCCCCCCCCCCCCCCCC(=O)*; C18 diacid = O=C(O)CCCCCCCCCCCCCCCCC(=O)*; γGlu = O=C(O)[C@H](CCC(=O)[*:2])N[*:1]; Trx = NC[C@H]1CC[C@H](C(=O)O)CC1; AEEA = NCCOCCOCC(=O)O
Tests used:
[1] = molecular target: T1, amylin receptor (hAMY3R) (Homo sapiens, UniProt O60896+P30988); assay: Amylin receptor agonism testing, CRE-luciferase assay in stably transfected CHO-K1/Ga15/AMY3 cells; format: cell-based
T1 construct: host or cells: CHO-K1/Ga15/AMY3 cells, further stably transfected with a CRE-luciferase plasmid
T1 sequence (P30988 25-474): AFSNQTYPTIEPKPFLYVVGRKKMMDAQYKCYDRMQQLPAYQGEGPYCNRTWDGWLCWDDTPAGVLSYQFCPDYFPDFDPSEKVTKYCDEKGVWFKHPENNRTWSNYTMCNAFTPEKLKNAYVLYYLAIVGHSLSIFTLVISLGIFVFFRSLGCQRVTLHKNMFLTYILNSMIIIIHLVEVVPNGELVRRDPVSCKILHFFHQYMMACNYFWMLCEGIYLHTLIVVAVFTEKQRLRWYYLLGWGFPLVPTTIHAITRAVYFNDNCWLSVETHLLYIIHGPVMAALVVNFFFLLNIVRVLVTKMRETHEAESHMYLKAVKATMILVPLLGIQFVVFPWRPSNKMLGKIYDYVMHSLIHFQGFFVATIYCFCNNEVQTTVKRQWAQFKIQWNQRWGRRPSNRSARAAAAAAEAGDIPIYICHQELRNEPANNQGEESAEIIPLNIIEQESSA
T1 sequence (O60896 24-148): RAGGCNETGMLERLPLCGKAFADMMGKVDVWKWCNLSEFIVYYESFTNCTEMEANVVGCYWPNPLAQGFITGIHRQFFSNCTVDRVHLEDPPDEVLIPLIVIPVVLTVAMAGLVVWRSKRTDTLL
From the text: The objective of this assay is to test the potency of the polypeptide derivatives in the present application on amylin and calcitonin receptors in vitro using a luciferase assay.
Using the standard protocol for construction of an amylin receptor/CRE-luc cell line, CHO-K1/Ga15/AMY3 cells (purchased from GenScript, with the calcitonin receptor and the receptor activity modifying peptide (RAMP) constructed already) were transfected with a plasmid containing a luciferase expression cassette driven by multiple copies of cAMP response elements (CREs). The cells were cultured in an F12 medium containing 200 ug/mL Zeocin, 2 ug/mL puromycin, 100 ug/mL hygromycin, and 400 ug/mL G418 to afford a stably transfected amylin receptor/CRE-luc cell line.
To each well of a white 96-well plate was added 50 μL of the tested sample solution at a respective concentration.
The stably transfected amylin receptor/CRE-luc CHO cells were resuspended in the growth medium at a certain density, and 50 μL of the cell suspension was added at a density of about 20,000 cells per well to the white 96-well plate containing the tested sample solution. After incubation of 24 hours at 37° C. and 5% CO2, 100 μL of a Luciferase substrate was added to each well, incubated for 3 minutes, and finally was tested for luminescence on SpectraMax L (Molecular Devices) with the software SoftMax Pro 7.0.3 GxP. A standard curve was plotted using the fluorescent intensities for calculation of EC50.

[2] = molecular target: T2, calcitonin receptor (hCTR) (Homo sapiens, UniProt P30988); assay: Calcitonin receptor agonism, CRE-luciferase assay in stably transfected CHO-K1/CALCR/Ga15 cells; format: cell-based; details: for EC50: incubation of 24 hours, Table 4, read-out: EC50, activity against the calcitonin receptor in cells
T2 construct: host or cells: CHO-K1/CALCR/Ga15 cells, further stably transfected with a CRE-luciferase plasmid
T2 sequence (P30988 25-474): T1 sequence (P30988 25-474)

[3] = Heat accelerated stability assay of polypeptide solutions (40° C., pH about 7.4), reversed phase chromatography; format: physicochemical; details: 40° C.; for Concentration change on 7 d / Concentration change on 26 d: pH about 7.4, 1 mg/mL; for Concentration change on 7 d / Purity change on 7 d: Day 7; for Concentration change on 26 d / Purity change on 26 d: Day 26; for Purity change on 7 d / Purity change on 26 d: reversed phase chromatography 214 nm; for Purity change on 7 d: purity on 7 d − purity on 0 d; for Purity change on 26 d: purity on 26 d − purity on 0 d
Experimental: A stability test chamber (BINDER GmbH), a 0.01 mg-readability balance (METTLER TOLEDO), a pH meter (METTLER TOLEDO), a biosafety cabinet (ESCO), T2G-II small-sized motor-driven capping machine (Changsha zhongya pharmaceutical equipment co. LTD), a high-speed refrigerated centrifuge (Eppendorf), a sterilizer cabinet (Shinva Medical), Agilent 1260 high-performance liquid chromatographer, and Sepax Bio-C18 4.6*250 mm 3 μm 200 Å reversed phase column were used.
Reagents and consumables included: ultrapure water (18.2 MΩ, self-made), acetonitrile (HPLC grade), trifluoroacetic acid (HPLC grade), sodium dihydrogen phosphate (pharmaceutical grade, Hunan Jiudian Hongyang Pharmaceutical Co., Ltd), hydrochloric acid (pharmaceutical grade, Hunan Er-Kang Pharmaceutical Co., Ltd), sodium hydroxide (Analytical Reagent grade, Hushi®, Sinopharm Chemical Reagent Co., Ltd), vials, rubber stoppers, disposable syringes, and sterile filters.
The lyophilized powder (1 mg/mL) of the polypeptide derivative prepared in accordance with the method of Example 1 was mixed with sodium dihydrogen phosphate (1.42 mg/mL) and dissolved in ultrapure water in the indicated mass-volume ratios. After adjusting pH to about 7.4 with hydrochloric acid/sodium hydroxide, the solution was filtered into a sterilized vial in a clean bench using a 0.22 μm sterile filter. The vial was then capped and placed into the stability test chamber at 40° C. Detections were made on Days 7 (7d) and 26 (26d), and during the assay, changes in the characteristics and properties of the polypeptide were observed and recorded. The sample was then centrifuged for 3 min at 10,000 rpm at 4° C., and the supernatant was transferred to a liquid phase sample vial for detecting the concentration and purity of the polypeptides using liquid phase chromatography described as below, wherein the concentration of the polypeptide=peak area/injection volume/extinction coefficient/60×flow rate, and the purity of the polypeptide=target peak area/total peak area×100%.
Conditions of the reversed phase chromatography Flow rate: 1.0 ml/min; Autosampler temperature: 15° C.; Column temperature: 25° C.; Detection wavelengths: 280 nm and 214 nm; Mobile phase A: 100% H2O+0.05% TFA; Mobile phase B: 100% ACN; and Gradient of elution listed in Table 6: […]

Compound | Fold change in activity against hAMY3R ([1]; relative to D1 as benchmark) | Fold change in activity against hCTR ([2]; relative to D1 as benchmark) | Concentration change on 26 d [3] | Purity change on 7 d [3] | Purity change on 26 d [3] | EC50 ([1]; incubation of 24 hours, Table 3, read-out: EC50, activity against the amylin receptor in cells) | EC50 [2] | Concentration change on 7 d [3]
CC(C)C[C@H](NC(=O)[C@H](CCCNC(=N)N)NC(=O)CNC(=O)[C@H](CC(C)C)NC(=O)[C@@H](NC(=O)[C@H](C)NC(=O)[C@@H](NC(=O)[C@H](CO)NC(=O)[C@H](CC(C)C)NC(=O)[C@H](CCC(N)=O)NC(=O)[C@H](CO)NC(=O)[C@H](C)NC(=O)CC[C@H](NC(=O)CCCCCCCCCCCCCCCCC(=O)O)C(=O)O)[C@@H](C)O)C(C)C)C(=O)N[C@@H](CO)C(=O)N[C@@H](CC(=O)O)C(=O)N[C@@H](CCC(=O)O)C(=O)N[C@@H](CC(C)C)C(=O)N[C@@H](Cc1c[nH]cn1)C(=O)N[C@@H](CCCNC(=N)N)C(=O)N[C@@H](CC(C)C)C(=O)N[C@@H](CCC(N)=O)C(=O)N[C@@H](CC(=O)O)C(=O)N[C@@H](Cc1ccc(O)cc1)C(=O)N1CCC[C@H]1C(=O)N[C@@H](CCCNC(=N)N)C(=O)N[C@H](C(=O)N[C@@H](CC(=O)O)C(=O)N[C@H](C(=O)NCC(=O)N[C@@H](CO)C(=O)NCC(=O)N[C@@H](CO)C(=O)N1CCC[C@H]1C(N)=O)C(C)C)[C@@H](C)O [M8] ({C18 diacid-γGlu}-ASQLSTAVLGRLSDELHRLQDYPRTDVGSGSP-NH2) | – | – | −6.190% | No change | −3.3% | – | 165 pM | No change (concentration change of less than 1% (denoted as “no change”))
CC(C)C[C@H](NC(=O)[C@H](CCCNC(=N)N)NC(=O)CNC(=O)[C@H](CC(C)C)NC(=O)[C@@H](NC(=O)[C@H](C)NC(=O)[C@@H](NC(=O)[C@H](CO)NC(=O)[C@H](CC(C)C)NC(=O)[C@H](CCC(N)=O)NC(=O)[C@H](CO)NC(=O)[C@H](C)NC(=O)CC[C@H](NC(=O)CCCCCCCCCCCCCCCCCCCCC(=O)O)C(=O)O)[C@@H](C)O)C(C)C)C(=O)N[C@@H](CO)C(=O)N[C@@H](CC(=O)O)C(=O)N[C@@H](CCC(=O)O)C(=O)N[C@@H](CC(C)C)C(=O)N[C@@H](Cc1c[nH]cn1)C(=O)N[C@@H](CCCNC(=N)N)C(=O)N[C@@H](CC(C)C)C(=O)N[C@@H](CCC(N)=O)C(=O)N[C@@H](CC(=O)O)C(=O)N[C@@H](Cc1ccc(O)cc1)C(=O)N1CCC[C@H]1C(=O)N[C@@H](CCCNC(=N)N)C(=O)N[C@H](C(=O)N[C@@H](CC(=O)O)C(=O)N[C@H](C(=O)NCC(=O)N[C@@H](CO)C(=O)NCC(=O)N[C@@H](CO)C(=O)N1CCC[C@H]1C(N)=O)C(C)C)[C@@H](C)O [M7] ({C22 diacid-γGlu}-ASQLSTAVLGRLSDELHRLQDYPRTDVGSGSP-NH2) | – | – | No change (concentration change of less than 1% (denoted as “no change”)) | No change | nearly no noticeable change in purity | – | 194 pM | No change (concentration change of less than 1% (denoted as “no change”))
CC(C)C[C@H](NC(=O)[C@H](CCCNC(=N)N)NC(=O)CNC(=O)[C@H](CC(C)C)NC(=O)[C@@H](NC(=O)[C@H](C)NC(=O)[C@@H](NC(=O)[C@H](CO)NC(=O)[C@H](CC(C)C)NC(=O)[C@H](CCC(N)=O)NC(=O)[C@H](CO)NC(=O)[C@H](C)NC(=O)[C@H](CC(=O)O)NC(=O)CCCCCCCCCCCCCCCCC(=O)O)[C@@H](C)O)C(C)C)C(=O)N[C@@H](CO)C(=O)N[C@@H](CC(=O)O)C(=O)N[C@@H](CCC(=O)O)C(=O)N[C@@H](CC(C)C)C(=O)N[C@@H](Cc1c[nH]cn1)C(=O)N[C@@H](CCCNC(=N)N)C(=O)N[C@@H](CC(C)C)C(=O)N[C@@H](CCC(N)=O)C(=O)N[C@@H](CC(=O)O)C(=O)N[C@@H](Cc1ccc(O)cc1)C(=O)N1CCC[C@H]1C(=O)N[C@@H](CCCNC(=N)N)C(=O)N[C@H](C(=O)N[C@@H](CC(=O)O)C(=O)N[C@H](C(=O)NCC(=O)N[C@@H](CO)C(=O)NCC(=O)N[C@@H](CO)C(=O)N1CCC[C@H]1C(N)=O)C(C)C)[C@@H](C)O [M13] ({C18 diacid}-DASQLSTAVLGRLSDELHRLQDYPRTDVGSGSP-NH2) | – | – | −5.520% | −1.15% | −3.76% | – | 85 pM | −1.895%

The next lines start with results.

Fold change in activity against hAMY3R ([1]; relative to D1 as benchmark) | Fold change in activity against hCTR ([2]; relative to D1 as benchmark) | Concentration change on 26 d [3] | Purity change on 7 d [3] | Purity change on 26 d [3] | EC50 ([1]; incubation of 24 hours, Table 3, read-out: EC50, activity against the amylin receptor in cells) | EC50 [2] | Compound | Concentration change on 7 d [3]
18.000 | 0.966 | – | – | – | – | – | CC(C)C[C@H](NC(=O)[C@H](CCCNC(=N)N)NC(=O)CNC(=O)[C@H](CC(C)C)NC(=O)[C@@H](NC(=O)[C@H](C)NC(=O)[C@@H](NC(=O)[C@H](CO)NC(=O)[C@H](CC(C)C)NC(=O)[C@H](CCC(N)=O)NC(=O)[C@H](CO)NC(=O)[C@H](C)NC(=O)COCCOCCNC(=O)COCCOCCNC(=O)[C@H]1CC[C@H](CNC(=O)CCCCCCCCCCCCCCCCC(=O)O)CC1)[C@@H](C)O)C(C)C)C(=O)N[C@@H](CO)C(=O)N[C@@H](CC(=O)O)C(=O)N[C@@H](CCC(=O)O)C(=O)N[C@@H](CC(C)C)C(=O)N[C@@H](Cc1c[nH]cn1)C(=O)N[C@@H](CCCNC(=N)N)C(=O)N[C@@H](CC(C)C)C(=O)N[C@@H](CCC(N)=O)C(=O)N[C@@H](CC(=O)O)C(=O)N[C@@H](Cc1ccc(O)cc1)C(=O)N1CCC[C@H]1C(=O)N[C@@H](CCCNC(=N)N)C(=O)N[C@H](C(=O)N[C@@H](CC(=O)O)C(=O)N[C@H](C(=O)NCC(=O)N[C@@H](CO)C(=O)NCC(=O)N[C@@H](CO)C(=O)N1CCC[C@H]1C(N)=O)C(C)C)[C@@H](C)O [M28] ({C18 diacid-Trx-AEEA-AEEA}-ASQLSTAVLGRLSDELHRLQDYPRTDVGSGSP-NH2) | –
– | – | −2.235% | −2.39% | −2.68% | 8 pM | 24 pM | CC(C)C[C@H](NC(=O)[C@H](CCCNC(=N)N)NC(=O)CNC(=O)[C@H](CC(C)C)NC(=O)[C@@H](NC(=O)[C@H](C)NC(=O)[C@@H](NC(=O)[C@H](CO)NC(=O)[C@H](CC(C)C)NC(=O)[C@H](CCC(N)=O)NC(=O)[C@H](CO)NC(=O)[C@H](C)NC(=O)COCCOCCNC(=O)COCCOCCNC(=O)[C@H](CC(=O)O)NC(=O)CCCCCCCCCCCCCCCCC(=O)O)[C@@H](C)O)C(C)C)C(=O)N[C@@H](CO)C(=O)N[C@@H](CC(=O)O)C(=O)N[C@@H](CCC(=O)O)C(=O)N[C@@H](CC(C)C)C(=O)N[C@@H](Cc1c[nH]cn1)C(=O)N[C@@H](CCCNC(=N)N)C(=O)N[C@@H](CC(C)C)C(=O)N[C@@H](CCC(N)=O)C(=O)N[C@@H](CC(=O)O)C(=O)N[C@@H](Cc1ccc(O)cc1)C(=O)N1CCC[C@H]1C(=O)N[C@@H](CCCNC(=N)N)C(=O)N[C@H](C(=O)N[C@@H](CC(=O)O)C(=O)N[C@H](C(=O)NCC(=O)N[C@@H](CO)C(=O)NCC(=O)N[C@@H](CO)C(=O)N1CCC[C@H]1C(N)=O)C(C)C)[C@@H](C)O [M26] ({C18 diacid}-D[AEEA][AEEA]ASQLSTAVLGRLSDELHRLQDYPRTDVGSGSP-NH2) | −2.402%

From US20260265305A1, “POLYPEPTIDE DERIVATIVE FOR ORAL DELIVERY” (Hangzhou Sciwind Biosciences Co., Ltd., priority 2023, published 2026)
